Results: ChEMBL document CHEMBL1201862, “PubChem BioAssay data set” (2004)
Activity calls are given as the source filed them.

Legend:
[1] = growth suppression of PTEN-null colon cells, dose response, cell-based, HCT116 PTEN knockout (AID 1047); type: functional;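 further: HCT116 colon tumor cells with PTEN knocked out; cells exposed to compound for 60 hours before readout; potency for loss of cell viability measured by luminescence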
[2] = growth suppression of beta-catenin-knockout colon cells, dose response, cell-based, HCT116, human colon tumor (AID 1045); type: functional;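 further: HCT116 colon tumor cells with beta catenin knocked out; cells exposed to compound for 60 hours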
[3] = cytotoxicity in KRAS-transformed pancreatic duct cells, primary screen, cell-based, fluorescence, HTS (AID 431); type: functional; details: Homo sapiens;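 further: cell line used: HPDE-C7K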
[4] = cytotoxicity in HPDE-C7 cells, cell-based, fluorescence, HTS (AID 430); type: functional; details: Homo sapiens
[5] = biological target: Induced myeloid leukemia cell differentiation protein Mcl-1 (Homo sapiens, UniProt Q07820); type: functional
Induced myeloid leukemia cell differentiation protein Mcl-1, sequence (Q07820 whole entry, the tested form may be a part): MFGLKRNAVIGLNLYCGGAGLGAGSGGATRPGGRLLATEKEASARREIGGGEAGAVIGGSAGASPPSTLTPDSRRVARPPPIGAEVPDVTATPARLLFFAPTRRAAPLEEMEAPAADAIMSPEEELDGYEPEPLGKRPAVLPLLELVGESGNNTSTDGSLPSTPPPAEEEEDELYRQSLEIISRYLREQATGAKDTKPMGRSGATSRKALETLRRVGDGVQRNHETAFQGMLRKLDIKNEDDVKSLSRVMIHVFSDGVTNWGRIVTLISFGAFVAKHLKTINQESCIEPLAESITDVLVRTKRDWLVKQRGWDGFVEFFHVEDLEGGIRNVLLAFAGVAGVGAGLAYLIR

[6] = biological target: T1, Carboxy-terminal domain RNA polymerase II polypeptide A small phosphatase 1 (Homo sapiens, UniProt Q9GZU7); assay: inhibitors of CTDSP1, concentration-response testing, biochemical assay, absorbance-based, actives from ultra-high-throughput screening (AID 540297); type: functional
T1 sequence (Q9GZU7 whole entry): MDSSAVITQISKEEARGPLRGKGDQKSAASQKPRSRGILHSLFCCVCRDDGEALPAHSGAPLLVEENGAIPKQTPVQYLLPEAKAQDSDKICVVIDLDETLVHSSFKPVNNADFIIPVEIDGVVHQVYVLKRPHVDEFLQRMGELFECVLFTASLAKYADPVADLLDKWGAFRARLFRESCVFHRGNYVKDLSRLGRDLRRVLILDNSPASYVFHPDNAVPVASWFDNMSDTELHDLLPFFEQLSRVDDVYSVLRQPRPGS

Leucine aminopeptidase = biological target: T2, Leucine aminopeptidase (Plasmodium falciparum 3D7, UniProt Q8IL11); assay: P. falciparum M17LAP inhibitors, primary screen, biochemical, fluorogenic H-Leu-NHMec substrate, 1536-well (AID 1619); type: functional
T2 sequence (Q8IL11 whole entry): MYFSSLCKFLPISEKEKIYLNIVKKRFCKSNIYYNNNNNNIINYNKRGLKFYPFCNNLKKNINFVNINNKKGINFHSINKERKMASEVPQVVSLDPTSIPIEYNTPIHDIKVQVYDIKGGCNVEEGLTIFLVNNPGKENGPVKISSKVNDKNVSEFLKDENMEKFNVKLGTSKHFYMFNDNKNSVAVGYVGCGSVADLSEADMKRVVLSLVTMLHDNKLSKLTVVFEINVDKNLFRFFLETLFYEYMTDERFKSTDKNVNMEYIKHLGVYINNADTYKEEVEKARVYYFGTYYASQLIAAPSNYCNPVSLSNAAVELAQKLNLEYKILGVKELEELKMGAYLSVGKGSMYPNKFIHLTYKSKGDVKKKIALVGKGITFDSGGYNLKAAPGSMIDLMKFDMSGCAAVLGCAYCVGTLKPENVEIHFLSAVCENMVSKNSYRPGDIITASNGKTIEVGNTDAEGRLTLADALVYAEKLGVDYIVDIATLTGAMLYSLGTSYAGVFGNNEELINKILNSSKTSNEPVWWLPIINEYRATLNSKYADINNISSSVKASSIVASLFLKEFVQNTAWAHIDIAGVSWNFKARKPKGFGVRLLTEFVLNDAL

[7] = biological target: T3, Zinc finger protein mex-5 (Caenorhabditis elegans, UniProt Q9XUB2); assay: MEX-5/TCR-2 RNA interaction inhibitors, dose response, biochemical, C. elegans, fluorescence polarization (AID 1960)
T3 sequence (Q9XUB2 whole entry): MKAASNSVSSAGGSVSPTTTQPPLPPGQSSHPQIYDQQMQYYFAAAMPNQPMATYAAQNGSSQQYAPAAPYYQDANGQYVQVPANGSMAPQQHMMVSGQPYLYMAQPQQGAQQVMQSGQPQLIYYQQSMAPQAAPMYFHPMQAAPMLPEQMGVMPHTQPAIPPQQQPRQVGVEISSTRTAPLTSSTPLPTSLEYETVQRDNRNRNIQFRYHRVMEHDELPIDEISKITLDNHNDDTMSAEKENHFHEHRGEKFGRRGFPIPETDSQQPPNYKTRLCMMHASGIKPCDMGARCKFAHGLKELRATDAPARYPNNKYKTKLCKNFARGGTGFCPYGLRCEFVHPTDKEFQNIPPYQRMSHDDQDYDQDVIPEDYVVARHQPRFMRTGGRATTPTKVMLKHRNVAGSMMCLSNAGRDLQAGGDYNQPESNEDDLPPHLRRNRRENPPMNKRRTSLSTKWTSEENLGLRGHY

[8] = biological target: T4, Histone-lysine N-methyltransferase NSD2 (Homo sapiens, UniProt O96028); type: biochemical
T4 sequence (O96028 whole entry): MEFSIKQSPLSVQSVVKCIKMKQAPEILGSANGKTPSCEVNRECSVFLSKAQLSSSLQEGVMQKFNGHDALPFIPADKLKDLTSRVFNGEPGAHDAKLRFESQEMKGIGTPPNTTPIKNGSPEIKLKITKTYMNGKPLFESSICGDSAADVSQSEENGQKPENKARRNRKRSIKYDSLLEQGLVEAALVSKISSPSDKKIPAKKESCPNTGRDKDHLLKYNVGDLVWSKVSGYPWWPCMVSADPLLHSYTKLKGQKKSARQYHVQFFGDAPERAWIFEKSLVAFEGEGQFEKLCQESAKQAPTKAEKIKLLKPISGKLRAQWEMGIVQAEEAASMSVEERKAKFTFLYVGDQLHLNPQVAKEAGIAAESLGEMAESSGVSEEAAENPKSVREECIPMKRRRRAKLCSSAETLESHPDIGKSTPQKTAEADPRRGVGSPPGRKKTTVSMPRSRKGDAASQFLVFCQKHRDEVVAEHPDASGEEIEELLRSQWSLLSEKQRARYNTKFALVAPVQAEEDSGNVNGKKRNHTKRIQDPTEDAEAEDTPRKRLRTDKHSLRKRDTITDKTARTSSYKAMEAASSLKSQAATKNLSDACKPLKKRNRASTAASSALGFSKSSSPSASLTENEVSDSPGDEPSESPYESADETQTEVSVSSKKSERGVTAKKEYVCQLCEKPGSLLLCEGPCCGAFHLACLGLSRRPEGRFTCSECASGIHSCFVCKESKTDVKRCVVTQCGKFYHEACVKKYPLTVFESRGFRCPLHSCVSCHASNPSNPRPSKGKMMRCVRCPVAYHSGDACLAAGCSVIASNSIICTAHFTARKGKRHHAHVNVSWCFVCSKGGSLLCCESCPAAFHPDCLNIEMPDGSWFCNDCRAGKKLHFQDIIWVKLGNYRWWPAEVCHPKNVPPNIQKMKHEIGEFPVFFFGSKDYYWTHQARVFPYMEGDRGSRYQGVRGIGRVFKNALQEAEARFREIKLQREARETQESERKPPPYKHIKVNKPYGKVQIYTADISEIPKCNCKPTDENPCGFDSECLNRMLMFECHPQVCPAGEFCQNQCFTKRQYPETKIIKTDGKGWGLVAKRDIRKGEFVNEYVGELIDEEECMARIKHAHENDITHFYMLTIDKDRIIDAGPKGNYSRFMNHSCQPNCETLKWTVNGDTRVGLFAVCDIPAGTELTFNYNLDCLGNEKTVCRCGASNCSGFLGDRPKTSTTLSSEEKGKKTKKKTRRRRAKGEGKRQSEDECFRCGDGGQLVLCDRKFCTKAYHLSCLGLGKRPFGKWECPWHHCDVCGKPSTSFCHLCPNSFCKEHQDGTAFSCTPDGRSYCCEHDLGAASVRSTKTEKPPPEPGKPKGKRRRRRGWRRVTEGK

[9] = biological target: T5, RNA-binding protein pos-1 (Caenorhabditis elegans, UniProt G5EF15); assay: inhibitors of POS-1/mex-3 RNA binding, dose response, biochemical, fluorescence polarization (AID 1964);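 further: purified POS-1 fused to maltose binding protein made in E. coli; potency of compounds blocking POS-1 binding to fluorescent RNA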
T5 sequence (G5EF15 whole entry): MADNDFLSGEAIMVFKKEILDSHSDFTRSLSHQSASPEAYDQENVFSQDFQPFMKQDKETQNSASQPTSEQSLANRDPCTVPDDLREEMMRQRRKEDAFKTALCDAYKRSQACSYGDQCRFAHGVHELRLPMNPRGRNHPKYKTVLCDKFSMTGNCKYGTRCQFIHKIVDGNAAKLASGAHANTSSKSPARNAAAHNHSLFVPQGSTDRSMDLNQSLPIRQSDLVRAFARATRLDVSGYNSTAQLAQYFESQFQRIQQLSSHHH

Genome polyprotein = Genome polyprotein (dengue virus type 2, UniProt P29990); assay: Dengue-2 NS5 methyltransferase inhibitors, primary screen, biochemical, confirmation dose response (AID 588689); type: functional
Genome polyprotein, sequence (P29990 2492-3391 limits assumed): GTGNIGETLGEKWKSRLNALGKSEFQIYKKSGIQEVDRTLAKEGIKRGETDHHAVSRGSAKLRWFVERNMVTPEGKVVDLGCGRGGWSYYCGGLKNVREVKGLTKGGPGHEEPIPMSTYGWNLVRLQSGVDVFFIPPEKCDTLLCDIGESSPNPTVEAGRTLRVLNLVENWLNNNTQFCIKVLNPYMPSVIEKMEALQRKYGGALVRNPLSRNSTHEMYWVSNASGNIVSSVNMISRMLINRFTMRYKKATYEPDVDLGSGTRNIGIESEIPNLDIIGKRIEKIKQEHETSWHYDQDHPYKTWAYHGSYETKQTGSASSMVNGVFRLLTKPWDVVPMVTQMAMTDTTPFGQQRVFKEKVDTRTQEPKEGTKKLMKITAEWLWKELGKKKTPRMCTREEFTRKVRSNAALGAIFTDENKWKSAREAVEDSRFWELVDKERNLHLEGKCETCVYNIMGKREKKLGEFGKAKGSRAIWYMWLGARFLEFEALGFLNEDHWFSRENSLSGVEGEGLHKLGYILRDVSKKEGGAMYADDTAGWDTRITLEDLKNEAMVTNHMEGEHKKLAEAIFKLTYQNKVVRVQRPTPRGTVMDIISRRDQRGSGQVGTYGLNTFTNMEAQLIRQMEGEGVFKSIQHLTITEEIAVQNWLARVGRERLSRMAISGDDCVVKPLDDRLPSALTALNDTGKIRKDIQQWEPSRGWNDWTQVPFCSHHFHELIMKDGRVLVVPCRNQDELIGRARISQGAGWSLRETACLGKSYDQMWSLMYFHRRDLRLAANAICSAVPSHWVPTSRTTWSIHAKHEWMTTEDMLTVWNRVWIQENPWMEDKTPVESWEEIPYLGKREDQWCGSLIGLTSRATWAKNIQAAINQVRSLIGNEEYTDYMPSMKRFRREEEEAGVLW

[10] = biological target: Heat shock protein HSP 90-alpha (Homo sapiens, UniProt P07900); type: functional, organism-based
[11] = microbe, parasite or virus in culture; type: functional; details: Mycobacterium tuberculosis
INS1 = assay: beta cell apoptosis inhibitors, cytokine rescue, dose response, luminescence, retest (AID 449756); type: functional, cell-based; details: Rattus norvegicus;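 further: cell death triggered by IL-1 beta plus TNF-alpha plus IFN-gamma mixture; protective hits raise ATP signal compared with cytokine alone wells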
[12] = Luminescence Cell-Based Dose Confirmation HTS to Identify Inhibitors of Platelet Dense Granule Release. [Related pubchem assays: 1663 (Primary HTS), 1678 (Summary of Project)]; type: functional
[13] = biological target: Luciferin 4-monooxygenase (Photinus pyralis, UniProt P08659); assay: firefly luciferase enzyme inhibitors, dose response, biochemical, luminescence (AID 1891)
Luciferin 4-monooxygenase, sequence (P08659 whole entry): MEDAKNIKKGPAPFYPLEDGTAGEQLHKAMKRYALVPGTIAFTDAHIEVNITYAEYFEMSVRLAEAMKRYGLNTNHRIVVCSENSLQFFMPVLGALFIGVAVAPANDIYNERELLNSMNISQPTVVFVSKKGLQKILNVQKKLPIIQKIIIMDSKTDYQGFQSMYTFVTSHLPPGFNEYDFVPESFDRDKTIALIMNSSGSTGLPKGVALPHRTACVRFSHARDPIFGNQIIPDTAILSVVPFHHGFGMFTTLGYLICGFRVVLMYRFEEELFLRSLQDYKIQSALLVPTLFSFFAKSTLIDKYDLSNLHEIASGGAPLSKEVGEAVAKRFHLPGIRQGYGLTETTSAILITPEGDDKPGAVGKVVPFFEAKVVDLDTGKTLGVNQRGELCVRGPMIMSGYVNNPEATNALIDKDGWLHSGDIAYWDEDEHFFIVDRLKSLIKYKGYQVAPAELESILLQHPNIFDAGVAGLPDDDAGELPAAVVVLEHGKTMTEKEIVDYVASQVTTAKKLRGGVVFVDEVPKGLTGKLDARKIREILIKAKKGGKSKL

Nonstructural protein 1 = Nonstructural protein 1 (Influenza A virus, UniProt Q194T2); type: functional, Influenza A virus (A/California/07/2009(H1N1))
Nonstructural protein 1, sequence (Q194T2 whole entry): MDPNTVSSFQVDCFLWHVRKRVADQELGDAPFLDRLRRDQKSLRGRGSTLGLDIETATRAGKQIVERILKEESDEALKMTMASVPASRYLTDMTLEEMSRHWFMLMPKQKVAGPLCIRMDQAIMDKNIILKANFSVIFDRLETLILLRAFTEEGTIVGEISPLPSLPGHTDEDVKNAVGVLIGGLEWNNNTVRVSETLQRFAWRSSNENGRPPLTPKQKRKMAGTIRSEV

[14] = inhibitors of SNCA 5'UTR-driven reporter translation, confirmation, H4 neuroglioma cells, luminescence (AID 1988); type: functional, cell-based
[15] = inhibitors of intracellular T. cruzi replication, confirmation, NIH3T3 host cells, beta-gal luminescence (AID 2044); type: functional, cell-based;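 further: intracellular parasites grown in NIH/3T3 mouse fibroblasts as host cells; luminescent beta-galactosidase reporter signal from transgenic T. cruzi replicating inside host cells; inhibitors lower the luminescence signal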
[16] = inhibitors of firefly luciferase expression or activity, dose response, H4 neuroglioma cells, luminescence (AID 1990); type: functional, cell-based
Streptococcus = assay: Group A Streptococcus viability loss, dose response, counter-screen for streptokinase expression inhibitor project, luminescence, BacTiterGlo (AID 1915); type: functional, organism-based;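 further: potency for reduction of bacterial viability or growth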
[17] = cytotoxicity toward NIH3T3 fibroblasts, dose response, counter-screen, cell-based, ATP luminescence, mouse fibroblasts (AID 2010); type: functional;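 further: cells exposed to compound for about 90 hours before reading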
[18] = Luminescence Cell-Based Dose Response HTS to Identify Inhibitors of 5'UTR Stem-Loop Driven Prion Protein mRNA Translation in H4 Neuroglioblastoma Cells. [Related pubchem assays: 1827 (Project Summary), 1813 (Primary HTS)]; type: functional
[19] = test system: Streptococcus sp. 'group A'; assay: growth inhibition of control SK(-) GAS strain, dose response, counter-screen for streptokinase expression inhibitor project, luminescence, kanamycin, BacTiterGlo, confirmation (AID 1900); type: functional, organism-based

CN1c2ccccc2C(C)(C)C12C=Cc1cc(O)ccc1O2 (stereo unspecified)
EC50 [1]: 36.4 µM (active)
EC50 [2]: 18.4 µM (active)
EC50 [3]: > 20 µM (not active)
EC50 [4]: 15.2 µM (active)

O=C(COC(=O)c1cc(-c2ccco2)nc2ccccc12)NCc1ccc2c(c1)OCO2
IC50 [5]: < 0.4 µM (active)

Cc1cc(/C=C(/C#N)c2nc3ccccc3[nH]2)c(C)n1-c1cc(C(=O)O)cc(C(=O)O)c1
IC50 [6]: 5.68 µM (active)
IC50 (Leucine aminopeptidase): 42.6 µM (active)
EC50 [7]: 41.4 µM (active)
AC50 [8]: > 20 µM (inactive)
EC50 [9]: 59.3 µM (active)

COc1ccccc1/C=C1\SC(=S)N(NS(=O)(=O)c2ccc(C)cc2)C1=O
IC50 (Genome polyprotein): 34.7 µM (active)

Cc1cc(C)c(S(=O)(=O)NCC23C=CC(O2)C2C(=O)N(c4ccccc4)C(=O)C23)c(C)c1 (stereo unspecified)
AC50 [10]: 10.1 µM (active)

O=C(O)CN1C(=O)/C(=C\c2cccc(OCc3ccc(F)cc3)c2)SC1=S
IC50 (Genome polyprotein): 42.6 µM (active)

O=C1NC(=O)C(=Cc2ccccc2[N+](=O)[O-])C(=O)N1
IC50 (Genome polyprotein): 27.3 µM (active)

O=C(Cn1nc(C(=O)O)c2ccccc2c1=O)Nc1ccc2c(c1)C(=O)c1ccccc1C2=O
IC50 [5]: 4.02 µM (active)

O=C1CC2CCCN2C=C1I (stereo unspecified)
IC50 [6]: 5.48 µM (active)
IC50 (Genome polyprotein): 62.7 µM (active)

COC(=O)c1ccc(N2C(=O)CC(N(C)Cc3ccccc3)C2=O)cc1 (stereo unspecified)
AC50 [10]: 7.7 µM (active)

Cc1ccc2c(c1)c1ncnc(N3CCc4ccccc4C3)c1n2C
EC50 [3]: 11.7 µM (active)
CC50 [11]: > 40 µM (active)
EC50 [4]: 11.4 µM (active)

Oc1nccc(N/N=C/c2ccccc2O)n1
AC50 (INS1): 0.625 µM (active)
EC50 [12]: 4.11 µM (active)
EC50 [13]: 36.3 µM (active)
IC50 (Nonstructural protein 1): 10.3 µM (active)

CC(C)(C)OC(=O)N[C@@H](Cc1ccccc1)c1nnc(S(=O)(=O)Cc2ccccc2)o1
EC50 [3]: > 20 µM (not active)
EC50 [4]: 16.9 µM (active)

Cc1cc(NC(=O)CSc2nnc(-c3ccco3)o2)no1
IC50 (Nonstructural protein 1): 32.4 µM (active)

Oc1ccc(CN2CCN(c3ccccc3)CC2)c2cccnc12
EC50 [14]: 9.72 µM (active)
EC50 [15]: 1.86 µM (active)
EC50 [16]: 11.9 µM (active)
EC50 (Streptococcus): 7.49 µM (active)
IC50 (Nonstructural protein 1): 59.1 µM (active)
EC50 [17]: > 60 µM (not active)
EC50 [18]: 9.95 µM (active)
EC50 [19]: 5.48 µM (active)
